One block for each compound: values may come before it. Residues, ends and D or L forms follow the SMILES beside them. *: point of attachment. Biotin = O=C1N[C@H]2[C@H](CS[C@H]2CCCCC(=O)*)N1; Ahx = NCCCCCC(=O)O
Assays:
[1] = tested on: me-38 colon adenocarcinoma tumor cells; test: Colon adenocarcinoma tumor growth in mice, peptide by oral gavage; format: in vivo; conditions: sMIC tolerant transgenic mice, 100 μg/mouse oral gavage twice/week
Method: For each of the experiments, descriptive statistics (means and standard deviations) for tumor volumes were calculated over time for each experimental group (i.e. Experiment 1: Control vs. BioE4 (FIG. 1); Experiment 2: PBS, Bio96, and BioE4-03 (FIG. 5)). Since tumor growth tends to be curvilinear, general linear mixed models (GLMMs) were created to estimate treatment-specific growth curves over time and to make comparisons between the peptide treatments and control. Separate GLMMs were constructed for each experiment, and each GLMM included random effects for each mouse, to control for the fact that the repeated volume measurements within a given mouse were correlated with one another. […] If a mouse's tumor grew too large, it was sacrificed; however, all tumor volumes measured prior to sacrifice were included in the modeling process. […]
sMIC tolerant transgenic (MB481 strain) mice (Liu et al, Perturbation of NK cell peripheral homeostasis accelerates prostate carcinoma metastasis. J. Clin. Invest. 123:4410, 2013) were injected with 1×10^5 me-38 colon adenocarcinoma tumor cells via subcutaneous injection When tumor size reached approximately 75 mm^3, treatment was started. start treatment at four group. […] Tumor volume was measured 3 times per week. […]

[2] = tested on: tumors; test: Histologic analysis of tumors (H&E, Masson Trichrome); format: in vivo, mouse
Method: Histological analysis of tumors treated with vehicle alone, or with BioE4-03 or Bio96 peptides was performed.

[3] = tested on: fibroblasts from lungs of patients with systemic sclerosis (SSc); test: SMA and Collagen 1A2 RNA in SSc lung fibroblasts; format: cell-based, human
Method: Fibroblasts were treated with TGFbeta with or without peptide Bio96-17 for 48 hours. RNA was extracted and levels of alpha smooth muscle actin (SMA) measured by qRT-PCR.
SSc fibroblasts were treated with 10 μg/ml BioE4-03 for 72 hours. RNA was extracted and used to measure SMA and Collagen 1A2.

[4] = tested on: fibroblasts from lungs of patients with Idiopathic Pulmonary Fibrosis (IPF); test: SMA and Collagen 1A2 RNA in IPF lung fibroblasts; format: cell-based, human; conditions: IPF lung fibroblasts (FIG. 17)
[5] = tested on: TRAMP C-2 mouse prostate tumor cells; test: Prostate tumor growth in mice, peptide by oral gavage; format: in vivo; conditions: C57BL6 mice, TRAMP C-2 tumors, 50 μg/dose oral gavage twice per week, vs water control
Method: For each of the experiments, descriptive statistics (means and standard deviations) for tumor volumes were calculated over time for each experimental group (i.e. Experiment 1: Control vs. BioE4 (FIG. 1); Experiment 2: PBS, Bio96, and BioE4-03 (FIG. 5)). Since tumor growth tends to be curvilinear, general linear mixed models (GLMMs) were created to estimate treatment-specific growth curves over time and to make comparisons between the peptide treatments and control. Separate GLMMs were constructed for each experiment, and each GLMM included random effects for each mouse, to control for the fact that the repeated volume measurements within a given mouse were correlated with one another. Tumor volume served as the dependent variable in each model, while time (in days), time^2, treatment, treatment×time, and treatment×time^2 were included as independent variables. Using these models, the estimated mean tumor volumes at specific selected time points and the mean rate of change in the tumor volumes at specific selected time points were compared. If a mouse's tumor grew too large, it was sacrificed; however, all tumor volumes measured prior to sacrifice were included in the modeling process. […]
Two groups of wild type C57BL6 mice from Jax Labs were injected with TRAMP C-2 mouse prostate tumor cells in the right flank. […] Tumors were measured 3 times/week. […]

Compound: CC(C)C[C@H](NC(=O)[C@H](CC(C)C)NC(=O)[C@H](CO)NC(=O)[C@H](CO)NC(=O)[C@H](C)NC(=O)[C@H](CCC(N)=O)NC(=O)CNC(=O)[C@@H](NC(=O)[C@H](C)NC(=O)CCCC[C@@H]1SC[C@@H]2NC(=O)N[C@@H]21)[C@@H](C)O)C(N)=O [Bio96, Biotin-NH2-ATGQASSLL-CONH2] (Biotin-ATGQASSLL-NH2)
mean rate of increase in the tumor volume at day 21 (model-based estimate) ([1]; PBS control 151.1 mm^3 per day): 90.6 mm^3 per day
mean tumor volume at day 21 (model-based estimate) ([1]; PBS control 1492.1 mm^3): 871.4 mm^3
tumor cell arrangement ([2]; H&E staining, tumors from treated mice): looser cell arrangement
collagen bundles in the tumors ([2]; Masson Trichrome stain, compared to vehicle treated mice): thinner collagen bundles

Coll1A2 levels ([3]; Bio96-17 treatment (FIG. 15)): significant reduction
SMA levels ([3]; Bio96-17 treatment (FIG. 15)): significant reduction
Compound: CC(C)C[C@H](NC(=O)[C@H](CC(C)C)NC(=O)[C@H](CCCNC(=N)N)NC(=O)CNC(=O)CNC(=O)[C@H](CC(C)C)NC(=O)[C@H](CC(C)C)NC(=O)[C@H](CO)NC(=O)[C@H](CO)NC(=O)[C@H](C)NC(=O)[C@H](CCC(N)=O)NC(=O)CNC(=O)[C@@H](NC(=O)[C@H](C)NC(=O)CCCC[C@@H]1SC[C@@H]2NC(=O)N[C@@H]21)[C@@H](C)O)C(=O)NCC(=O)N[C@@H](CCC(N)=O)C(=O)N[C@@H](CO)C(=O)N[C@@H](C)C(=O)N[C@@H](C)C(=O)N[C@@H](CO)C(=O)N[C@@H](CS)C(=O)N[C@@H](Cc1c[nH]cn1)C(=O)N[C@@H](Cc1c[nH]cn1)C(=O)N[C@@H](C)C(N)=O [Bio96-17] (Biotin-ATGQASSLLGGRLLGQSAASCHHA-NH2)

Coll1A2 levels [4]: trend towards decrease
SMA levels [4]: trend towards decrease
Coll1A2 levels ([3]; 10 μg/ml, 72 hours (FIG. 16)): significant reduction
SMA levels ([3]; 10 μg/ml, 72 hours (FIG. 16)): significant reduction
Compound: CC(C)C[C@H](NC(=O)[C@H](CC(C)C)NC(=O)[C@H](CCCNC(=N)N)NC(=O)CNC(=O)CNC(=O)[C@H](CC(C)C)NC(=O)[C@H](CC(C)C)NC(=O)[C@H](CO)NC(=O)[C@H](CO)NC(=O)[C@H](C)NC(=O)[C@H](CCC(N)=O)NC(=O)CNC(=O)[C@@H](NC(=O)[C@H](C)NC(=O)[C@H](CO)NC(=O)[C@@H]1CCCN1C(=O)[C@H](C)NC(=O)[C@H](CCC(=O)O)NC(=O)[C@@H](NC(=O)[C@H](CCCNC(=N)N)NC(=O)[C@H](Cc1c[nH]c2ccccc12)NC(=O)[C@@H](NC(=O)[C@H](CCC(=O)O)NC(=O)[C@H](CS)NC(=O)[C@H](Cc1ccc(O)cc1)NC(=O)[C@H](CO)NC(=O)CCCCCNC(=O)CCCC[C@@H]1SC[C@@H]2NC(=O)N[C@@H]21)[C@@H](C)O)[C@@H](C)O)[C@@H](C)O)C(=O)NCC(=O)N[C@@H](CCC(N)=O)C(=O)N[C@@H](CO)C(=O)N[C@@H](C)C(=O)N[C@@H](C)C(=O)N[C@@H](CO)C(=O)N[C@@H](CS)C(=O)N[C@@H](Cc1c[nH]cn1)C(=O)N[C@@H](Cc1c[nH]cn1)C(=O)N[C@@H](C)C(N)=O [BioE4-03] ({Biotin-Ahx}-SYCETWRTEAPSATGQASSLLGGRLLGQSAASCHHA-NH2)

Compound: Biotin-SYCETWRTEAPSATGQASSLLGGRLLGQSAASCHHAYIVLCIENSFMT-NH2 (cysteines drawn unpaired) [BioE4]
mean rate of increase in the tumor volume on day 15 (model-based estimate) [5]: significantly (p=0.02) greater in the Control group when compared to the BioE4 group
mean tumor volume at day 15 (model-based estimate) [5]: significantly (p=0.0001) greater in the Control group when compared to the BioE4 group
